According to PMC6874530, “Structural analysis identifies an escape route from the adverse lipogenic effects of liver X receptor ligands” (Communications Biology, 2019):
Like-named read-outs stand apart in the source and are kept apart here.

What was measured:
[1] = biological target: T1, LXRα (Homo sapiens, UniProt Q13133); experiment: Gal4 one hybrid reporter gene (transactivation) assay in U2OS cells, LXRα; assay type: cell-based; settings: for EC50: U2OS cells, Gal4-LXRα LBD, read-out: LXRα transactivation pEC50 (converted); for Emax: U2OS, 40 h, read-out: LXRα transactivation Agonist efficacy, %
T1 construct: expression vectors pSG5-Gal4-LXRα LBD or pSG5-Gal4-LXRβ LBD; expressed in transfected cells; host or cells: U2OS osteosarcoma cells
T1 sequence (Q13133 209-447 limits assumed): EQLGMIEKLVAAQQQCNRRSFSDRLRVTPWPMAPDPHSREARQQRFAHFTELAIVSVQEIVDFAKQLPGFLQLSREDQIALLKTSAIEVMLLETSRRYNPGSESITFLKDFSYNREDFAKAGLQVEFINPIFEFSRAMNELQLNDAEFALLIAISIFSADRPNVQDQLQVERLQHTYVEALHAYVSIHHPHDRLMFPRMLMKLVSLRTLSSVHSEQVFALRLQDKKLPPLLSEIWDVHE
Protocol: (§1) Transactivation assays were performed in U2OS osteosarcoma cells (ATCC, USA). […] Ligands were added at ten different concentrations 2 h post transfection and the luciferase activity was measured after 40 h.

[2] = biological target: T2, LXRβ (Homo sapiens, UniProt P55055); experiment: Gal4 one hybrid reporter gene (transactivation) assay in U2OS cells, LXRβ; assay type: cell-based; settings: for Emax: U2OS, 40 h, read-out: LXRβ transactivation Agonist efficacy, %
T2 construct: expression vectors pSG5-Gal4-LXRα LBD or pSG5-Gal4-LXRβ LBD; expressed in transfected cells; host or cells: U2OS osteosarcoma cells
T2 sequence (P55055 222-460 limits assumed): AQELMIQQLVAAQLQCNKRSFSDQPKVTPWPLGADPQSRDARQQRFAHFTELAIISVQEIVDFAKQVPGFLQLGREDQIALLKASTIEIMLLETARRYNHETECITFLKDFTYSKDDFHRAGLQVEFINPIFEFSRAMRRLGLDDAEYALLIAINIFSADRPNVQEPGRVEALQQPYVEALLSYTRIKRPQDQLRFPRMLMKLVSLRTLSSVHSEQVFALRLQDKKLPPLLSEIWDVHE
Protocol: as §1

[3] = test system: Abca1 mRNA in intestine; experiment: intestinal Abca1 mRNA induction in C57BL/6 mice (Emax model); assay type: in vivo, mouse; settings: for ED50: Mus musculus
Protocol: All procedures involving animals were conducted in accordance with accepted standards of good animal practice and approved by the respective local animal ethics committees (Gothenburg region Local Ethics Review Committee on Animal experiments and University of Virginia Animal Care and Use Committee). Male C57BL/6JOlaHsd mice were retrieved from Harlan Laboratories (Horst, The Netherlands) around 7 weeks of age. In the studies with BMS-852907, male 8-week C57BL/6J mice (Jackson Laboratories) were used. Mice were given ad libitum access to water and standard rodent chow during the studies.
Solid compounds were solubilized in PEG400/Ethanol/Solutol/Water solution (36.3/9.1/4.6/50%). Compounds were given daily by oral gavage, 5 ml kg^−1, at doses ranging from 0.1 to 100 μmol kg^−1 of body weight for 4 days. Animals were terminated 3 h after the last dose.
At termination, the whole-blood volume was drawn from isoflurane-anesthetized mice via an incision in the carotid artery into EDTA blood tubes (S-Monovette®, EDTA KE/1.3 mL, Sarstedt, Nümbrecht, Germany or BD Microtainers®, Benton, Dickinson and Company, Franklin Lakes, New Jersey, USA). Blood samples were placed on ice and centrifuged within an hour (15 min, 2500 × g, 4 °C or 5 min, 16000 × g, 4 °C). The plasma was then dispensed in separate tubes and kept at −80 °C for later analysis of compound concentration and TG levels. For the analysis of intestinal Abca1 transcript levels, a 3–5-mm long segment of the duodenum was excised and cleared from any gut contents. Tissues were instantly snap frozen in liquid nitrogen and stored at −80 °C.
Snap-frozen intestinal tissues were quickly disrupted in QIAzol® (Qiagen, Hilden, Germany) or PureZOL™ (Bio-Rad Laboratories, Hercules, California, USA) by using a bead tissue homogenizer. Lysates were mixed with chloroform and centrifuged at 6000 × g for 15 min at 4 °C. Total RNA was purified from the upper aqueous phase on the ABI PRISM™ 6100 Nucleic Acid PrepStation (Applied Biosystems, Foster City, USA) or by using the RNeasy kit® (QIAGEN Sciences Inc., Germantown, Maryland, USA) including on-column DNase treatment by using the respective manufacturer’s protocol and reagents. Concentration of total RNA was determined on a NanoDrop™ ND-100 Spectrophotometer (Saveen Werner, Lögstrup, Sweden). The RNA templates were transferred to cDNA by reverse transcription by using the High-Capacity cDNA Reverse Transcription Kit (Applied Biosystems, Foster City, USA) according to the manufacturer’s protocol. Mouse ATP-binding cassette subfamily A member 1 (Abca1) was analyzed by using the forward primer 5′-[…]-3′, reverse primer 5′-[…]-3′, and the dual-labeled probe 5′-6FAM-[…]-TAMRA-3′. Mouse ribosomal protein large P0 (Rplp0, 36b4) was analyzed by using the forward primer 5′-[…]-3′, reverse primer 5′-[…]-3′, and the FAM-labeled probe 5′-[…]-TAMRA-3′. In the study with BMS-852907, RT-qPCR reactions were carried out in separate triplicate wells for Abca1 and Rplp0, respectively, by using 20 ng of cDNA template, 385 nM of the above-mentioned primers, and iQ™ SYBR Green Supermix (Bio-Rad, Hercules, California, USA) on a Bio-Rad MyiQ instrument (Bio-Rad, Hercules, California, USA). In the other studies, 400 nM Abca1 forward and reverse primers, 200 nM Abca1 probe, 200 nM Rplp0 forward and reverse primers, and 100 nM Rplp0 probe were mixed with 15 ng of cDNA template and TaqMan™ Gene Expression Master Mix (Applied Biosystems, Foster City, USA). The RT-qPCR reactions were performed on a 7500 Real-time PCR system (Applied Biosystems, Foster City, USA). Cycle threshold values (Ct) were retrieved from the instrument software. Relative changes in mRNA expression were calculated by using the comparative cycle method (2^−ΔΔCt). […]

[4] = biological target: T3, LXRβ LBD (Homo sapiens, UniProt P55055); experiment: biochemical
T3 sequence (P55055 215-460 limits assumed): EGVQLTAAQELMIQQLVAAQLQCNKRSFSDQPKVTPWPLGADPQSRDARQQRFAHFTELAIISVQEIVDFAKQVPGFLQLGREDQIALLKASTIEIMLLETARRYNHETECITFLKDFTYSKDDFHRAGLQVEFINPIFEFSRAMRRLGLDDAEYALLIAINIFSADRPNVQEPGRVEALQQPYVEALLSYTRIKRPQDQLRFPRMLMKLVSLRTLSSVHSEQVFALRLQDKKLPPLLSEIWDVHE
Source text: The compounds were run in triplicate (binding assay) or in quadruplicate (transactivation assay). Standard deviations are indicated for individual experiments run more than once.

[5] = maximal activation compared with a reference full agonist, value (SD, n)
[6] = U2OS cells, Gal4-LXRβ LBD, value (SD, n), read-out: LXRβ transactivation pEC50 (converted)
[7] = po, read-out: Abca1 mRNA induction in intestine Attributed class
[8] = oral gavage daily for 4 days, C57BL/6 mice, (% RSE), read-out: Abca1 mRNA induction in intestine ED50
[9] = Receptor-binding affinity pKi LXRβ, value (SD, n independent experiments)

Row | SMILES | EC50 ([1]; value (SD, n)) [nM] | Emax [1, 5] [%] | EC50 [2, 6] [nM] | Emax [2, 5] [%] | class of intestinal Abca1 induction [3] | ED50 [3, 7] [µmol/kg] | ED50 [3, 8] [µmol/kg] | Ki [4, 9] [nM] | agonist activity in the Gal4 reporter gene assay, LXRα [1] | agonist activity in the Gal4 reporter gene assay, LXRβ [2] | Ki ([4]; binding affinity to the LXRβ LBD) [nM] | Potency-based LXRα selectivity over LXRβ ([1]; Gal4 reporter gene assays) [fold] | Emax [2] [%] | EC50 [2] [nM] | Ki [4] [nM] | LXRα transactivation Agonist efficacy, % [1, 5] | LXRβ transactivation Agonist efficacy, % [2, 5]
1 | CC(C)(C)N1C(=O)C(Cc2ccccc2)=C(NC2CCN(c3ncc(CC(=O)O)cc3Cl)CC2)C1=O [AZ7] | 1100 | 85.3 | 537 | 104 | high ABCA1 | ≤ 11.3 | < 30 | 105 | – | – | – | – | – | – | – | – | –
2 | O=C1C(Cc2ccccc2)=C(NCCCCc2ccccc2)C(=O)N1Cc1ccccc1 [AZ8] | 1740 | 91.5 | 1290 | 102 | low ABCA1 inducers | > 11.3 | 341 | 47.9 | – | – | – | – | – | – | – | – | –
3 | CC(C)(O)c1cn(-c2ccc(-c3cc(F)c(CO)c(S(C)(=O)=O)c3)cc2F)c(C(C)(C)c2c(Cl)cccc2Cl)n1 [BMS-852927] | – | – | > 20000 | – | – | ≤ 11.3 | 2.1 | 2.63 | No signal was observed | No signal was observed | 3 | – | – | – | – | – | –
4 | O=C(O)Cc1ccc(CNC(=O)[C@@H]2Cc3ccccc3N2S(=O)(=O)c2ccc(-c3ccccc3C(F)(F)F)cc2)cc1 [F1, reference compound] | 562 | 84 | 3890 | 105 | high ABCA1 | ≤ 11.3 | < 30 | 36.3 | – | – | – | 7 | – | – | – | – | –
5 | O=C(O)Cc1cccc(OCCCN(Cc2cccc(C(F)(F)F)c2Cl)CC(c2ccccc2)c2ccccc2)c1 [GW3965, reference compound] | 1100 | 93.5 | 347 | – | – | ≤ 11.3 | 0.969 | 24 | – | – | – | – | 77.1 | – | – | – | –
6 | Fc1ccc(-c2c3cccc(C(F)(F)F)c3nn2Cc2ccc(F)cc2Cl)cc1 [LXR-623, reference compound] | 2570 | 102 | – | – | low ABCA1 inducers | > 11.3 | 31.5 | – | – | – | – | – | 94.3 | 1860 | 95.5 | – | –
7 | O=S(=O)(c1ccccc1)N(CC(F)(F)F)c1ccc(C(O)(C(F)(F)F)C(F)(F)F)cc1 [T0901317, reference compound] | – | – | – | – | – | ≤ 11.3 | 4.11 | – | – | – | – | – | – | – | – | 100.8 (7.4, n = 4) % | 95.5 (6.4, n = 2) %
